Test results reported in USRE30633E, “3-Lower alkylcarbamylsulfonamido-4-phenylaminopyridines, n-oxides, derivatives thereof and pharmaceutical compositions containing same” (A. Christiaens Societe Anonyme, priority 1974, dated 1981).

Key:
[1] = system: rats; test: Pharmacological test for diuretic properties (urine volume); assay type: in vivo; conditions: 50 mg/kg gastric gavage, 25 ml/kg saline s.c., urine collected 4 hours, ml/kg of body weight
Procedure: 2. Pharmacological tests for diuretic properties Lots of 3 rats weighting 250-300 g have been constituted at random, each of them being submitted to the same treatment. The compound to be tested was administered by .[.gastric gavage at a dose of 50 ml/kg as a solution or a.]. .Iadd.gastric gavage at a dose of 50 mg/kg as a solution or a .[…].suspension in water containing 0.45% of methylcellulose (which is an inert mucilaginous substance). Control animals received only distilled water as a placebo. At the same time, all the animals received 25 ml/kg of physiological saline by subcutaneous injection. The rats were then placed in metabolic cages, each cage containing 3 animals receiving the same treatment. The urines have been collected during 4 hours. […] The diuresis is expressed in ml/kg of body weight.

[2] = system: paw of rats; test: Pharmacological test for anti-inflammatory properties (carrageenan rat paw swelling); assay type: in vivo; conditions: oral 1 hour before carrageenan (0.05 ml of 1%), swelling 4 hours after injection by plethysmography, dose not given
Procedure: 1. Pharmacological test for anti-inflammatory properties.
The compounds to be tested are given as freshly prepared solutions or suspensions by oral route 1 hour before injecting the paw of rats with carrageenan which is a known inflammatory agent.
The inflammatory agent (carrageenan) either in solution or suspension is then injected into the plantar tissue of the right hind paw of each rat, the left paw remaining untreated and serving as control. Each animal receives, for example, 0.05 ml of an aqueous solution containing 1% by weight of carrageenan and 0.9% of sodium chloride.
4 hours after the injection of the inflammatory agent, the importance of swelling is determined by plethysmography and is expressed as a percent of the volume of the control paw.
The anti-inflammatory effect expressed as a percentage of inhibition is obtained by comparison between rats treated with the anti-inflammatory compound and a control group of rats.

Compound	Diuresis [1]	% inhibition of acute oedema [2]
CCCCNC(=O)NS(=O)(=O)c1cnccc1Nc1cccc(Cl)c1 [JDL 344, 3-butylcarbamylsulfonamido-4-(3'-chloro)-phenylaminopyridine]	66.9 mL/kg	82.4%
CCNC(=O)NS(=O)(=O)c1cnccc1Nc1ccc(Cl)cc1 [JDL 416, 3-ethylcarbamylsulfonamido-4-(4'-chloro)-phenylaminopyridine]	52.8 mL/kg	85.6%
O=C(NC1CCCCC1)NS(=O)(=O)c1cnccc1Nc1ccc(Cl)cc1 [JDL 426, 3-cyclohexylcarbamylsulfonamido-4-(4'-chloro)-phenylaminopyridine]	22.0 mL/kg	73.6%
NS(=O)(=O)c1cnccc1Sc1cccc(Cl)c1 [JDL 361, 3-sulfonamido-4-(3'-chloro)-thiophenoxypyridine]	9.6 mL/kg	56.8%
CNC(=O)NS(=O)(=O)c1cnccc1Nc1cccc(F)c1 [JDL 495, 3-methylcarbamylsulfonamido-4-(3'-fluoro)-phenylaminopyridine]	76.3 mL/kg	66.2%
CC(C)NC(=O)NS(=O)(=O)c1cnccc1NCc1ccco1 [JDL 472, 3-isopropylcarbamylsulfonamido-4-methylfurylaminopyridine]	69.6 mL/kg	54.4%
Cc1cncc(S(=O)(=O)NC(=O)NC(C)C)c1Nc1cccc(Cl)c1 [JDL 503, 3-isopropylcarbamylsulfonamido-4-(3'-chloro)-phenylamino-5-methylpyridine]	48.9 mL/kg	71.2%
CC(C)(C)NC(=O)NS(=O)(=O)c1cnccc1Sc1cccc(Cl)c1 [JDL 385, 3-tertiobutylcarbamylsulfonamido-4-(3'-chloro)-thiophenoxypyridine]	17.6 mL/kg	46.6%
3-isopropylcarbamylsulfonamido-4-isopropylaminopyridine [JDL 363]	40.1 mL/kg	63.2%
CCNC(=O)NS(=O)(=O)c1cnccc1Nc1cccc(F)c1 [JDL 465, 3-ethylcarbamylsulfonamido-4-(3'-fluoro)-phenylaminopyridine]	76.7 mL/kg	71.2%
